Laboratory results as given in US8394854B2, “Use of L-carnitine for the treatment of cardiovascular diseases” (Sigma-Tau Industrie Farmaceutiche Riunite S.p.A., priority 2004, dated 2013).

Tests used:
[1] = tested on: infarction patients; settings: two deaths also in the placebo group; cited from earlier work
[2] = tested on: experimental cardiac ischaemia model; settings: dogs; cited from earlier work
[3] = tested on: infarction patients; settings: L-carnitine administered within 24 hours of the infarction; 14 in the control group; cited from earlier work
[4] = tested on: patients with acute myocardial infarction; assay: Multicentre randomized, double-blind, placebo-controlled, parallel-group clinical trial of L-carnitine; assay type: in vivo, human; settings: for RR (Relative Risk) of death at 1 mo. / RR (Relative Risk) of death at 2 mos. / RR (Relative Risk) of death at 6 mos. / RR (Relative Risk) of death at 12 mos. / RR (Relative Risk) of death at 3 days / RR (Relative Risk) of death at 5 days / RR (Relative Risk) of death at 7 days: vs placebo
Description: A clinical trial was conducted aimed at evaluating the effect of the administration of L-carnitine on short-, medium- and long-term incidence and mortality in patients with acute myocardial infarction. The trial design was that of a multicentre randomized, double-blind, placebo-controlled, parallel-group trial.
A total of 2,296 patients of male and female sex were recruited, aged below 80 years, subdivided into groups. The study compound, L-carnitine, was administered at a dose of 9 g/day i.v. for the first 5 days and 4 g/day by mouth from day 6 to day 180.
In particular, in one group of patients the L-carnitine was administered intravenously dissolved in sterile saline solution, while in another group of patients it was administered dissolved in normal 5% glucose solution used in hospital departments.
The control group received the standard therapy used for the treatment of infarct, without L-carnitine.
Concomitant therapies were administered according to the procedures adopted in local clinical practice.
The efficacy parameters evaluated were reduction of mortality, reduction of the number of days spent in intensive care, and reduction of the number of episodes of post-infarction heart failure.
• Typical chest pain lasting >30 minutes which is not relieved by oral or i.v. administration of nitrates; • ECG with ST-segment elevation 0.2 mV in D, and in lead aVL and/or in at least two contiguous precordial leads; • Time interval elapsing between onset of symptoms and study randomisation <12 hours; • Age <80 years; • Written informed consent. Exclusion Criteria • Pregnancy or breast-feeding; • Haemodynamically significant valvulopathy; • Hypertrophic or dilatory cardiomyopathy; • Congenital cardiopathy; • Clinically severe liver and kidney disease; • Alcohol abuse; • Other diseases associated with a poor life expectancy; • Conditions making poor compliance with treatment and/or periodic examinations likely; • Inclusion in another trial.

[5] = tested on: patients with signs of infarction; settings: 40 mg/kg/day (2.8 g/day), cited from earlier work
[6] = tested on: patients presenting infarction symptoms; settings: 2 g/day; 6 in the control group; cited from earlier work
[7] = tested on: patients with acute myocardial infarction; settings: 3 grams every 8 hours (9 grams a day) intravenously for 48 hours; control saline solution; cited from earlier work
[8] = all patients, L-carnitine in saline or glucose solution
[9] = group treated with L-carnitine dissolved in glucose solution
[10] = L-carnitine dissolved in glucose solution
[11] = all patients, saline or glucose solution

In the case of `C[N+](C)(C)C[C@H](O)CC(=O)[O-]` [L-carnitine], the “deaths in the group treated with L-carnitine” value [1] is given as “two”, the “enhancing cardiac lipid metabolism” value [2] is given as “active” and the “patients in the treated group who died over the entire hospitalisation period” value [3] is given as 11. For the same compound, the “NUMBER OF DEATHS AT: 1 mo.” value [4, 8] was 45, the “NUMBER OF DEATHS AT: 1 mo.” value [4, 9] was 22 and the “RR (Relative Risk) of death at 1 mo.” value [4, 10] was 0.79. The “RR (Relative Risk) of death at 1 mo.” value [4, 11] was 0.78, the “NUMBER OF DEATHS AT: 2 mos.” value [4, 8] was 53 and the “NUMBER OF DEATHS AT: 2 mos.” value [4, 9] was 26. For the same compound, the “RR (Relative Risk) of death at 2 mos.” value [4, 10] was 0.80, the “RR (Relative Risk) of death at 2 mos.” value [4, 11] was 0.81 and the “NUMBER OF DEATHS AT: 6 mos.” value [4, 8] was 64. For the same compound, the “NUMBER OF DEATHS AT: 6 mos.” value [4, 9] was 32, the “RR (Relative Risk) of death at 6 mos.” value [4, 10] was 0.87 and the “RR (Relative Risk) of death at 6 mos.” value [4, 11] was 0.86. The “NUMBER OF DEATHS AT: 12 mos.” value [4, 8] was 67, the “NUMBER OF DEATHS AT: 12 mos.” value [4, 9] was 33 and the “RR (Relative Risk) of death at 12 mos.” value [4, 10] was 0.88. For the same compound, the “RR (Relative Risk) of death at 12 mos.” value [4, 11] was 0.89, the “NUMBER OF DEATHS AT: 3 days” value ([4]; all patients, L-carnitine in saline or glucose solution, 9 g/day i.v. 5 days then 4 g/day oral) was 23 and the “NUMBER OF DEATHS AT: 3 days” value [4, 9] was 11. For the same compound, the “RR (Relative Risk) of death at 3 days” value [4, 10] was 0.67, the “RR (Relative Risk) of death at 3 days” value [4, 11] was 0.68 and the “NUMBER OF DEATHS AT: 5 days” value [4, 8] was 27. For the same compound, the “NUMBER OF DEATHS AT: 5 days” value [4, 9] was 13, the “RR (Relative Risk) of death at 5 days” value [4, 10] was 0.64 and the “RR (Relative Risk) of death at 5 days” value [4, 11] was 0.63. For the same compound, the “NUMBER OF DEATHS AT: 7 days” value [4, 8] was 31, the “NUMBER OF DEATHS AT: 7 days” value [4, 9] was 15 and the “RR (Relative Risk) of death at 7 days” value [4, 10] was 0.70. The “RR (Relative Risk) of death at 7 days” value [4, 11] was 0.69, the “difference between patients treated within 4 hours of onset of symptoms of infarction and patients treated 4 hours after onset” value [5] was “no statistically significant difference” and the “number of deaths in the treated group” value ([5]; one in the control group) was “none”. For the same compound, the “number of deaths at 28 days after the start of treatment” value [6] was 4 and the “mortality at 7 days after the start of treatment, control group vs treated group” value [7] was “no significant difference”.
